# Measurements reported in patent US9133147B2, “Thrombin inhibitors” (Merck Sharp & Dohme Corp., priority 2012, dated 2015).
# Structures can show the parent of a compound that is named as a salt.
# Biological target: human α-thrombin (Homo sapiens, UniProt P00734)
# Assay: In vitro assay for determining proteinase inhibition (thrombin Ki)
# Assay type: biochemical
# Details: 25° C., 0.05 M TRIS buffer pH 7.4, 0.15 M NaCl, 0.1% PEG; sar-PR-pna or Z-GPR-afc substrate; competitive inhibition assumed
# From the text: Unless otherwise stated, all NMR determinations were made using 400 MHz field strength. Ki data was obtained according to the procedure described in Lewis, et al. Thromb. Res. 1993, 70, 173 (assays of human-thrombin and human trypsin), and Lewis, et al. Thromb. Haemostasis 1995, 74, 1107-1112.
# Relevant in vitro assays are referenced in Morrissette, et al., Bioorg. Med. Chem. Lett. 2004, 14, 4161-4164 and described in Lewis, et al. Thromb. Res. 1993, 70, 173 (assays of human α-thrombin and human trypsin), and Lewis, et al. Thromb. Haemostasis 1995, 74, 1107-1112. The assays were carried out at 25° C. in 0.05 M TRIS buffer pH 7.4, 0.15 M NaCl, 0.1% PEG. Trypsin assays also contained 1 mM CaCl2. In assays wherein rates of hydrolysis of a p-nitroanilide (pna) substrate were determined, a Thermomax 96-well plate reader was used was used to measure (at 405 nm) the time dependent appearance of p-nitroaniline. sar-PR-pna was used to assay human α-thrombin (Km=125 μM) and bovine trypsin (Km=125 μM). p-Nitroanilide substrate concentration was determined from measurements of absorbance at 342 nm using an extinction coefficient of 8270 cm^−1M^−1.
# In certain studies with potent inhibitors (Ki<10 nM) where the degree of inhibition of thrombin was high, a more sensitive activity assay was employed. In this assay the rate of thrombin catalyzed hydrolysis of the fluorogenic substrate benzyloxycarbonyl-Gly-Pro-Arg-7-amino-4-trifluoromethylcoumarin (Z-GPR-afc, Lewis S. D. et al. (1998) J. Biol. Chem. 273, pp. 4843-4854) (Km=27 μM) was determined from the increase in fluorescence at 500 nm (excitation at 400 nm) associated with production of 7-amino-4-trifluoromethyl coumarin. Concentrations of stock solutions of Z-GPR-afc were determined from measurements of absorbance at 380 nm of the 7-amino-4-trifluoromethyl coumarin produced upon complete hydrolysis of an aliquot of the stock solution by thrombin.
# Activity assays were performed by diluting a stock solution of substrate at least tenfold to a final concentration ≦0.1 Km into a solution containing enzyme or enzyme equilibrated with inhibitor. Times required to achieve equilibration between enzyme and inhibitor were determined in control experiments. Initial velocities of product formation in the absence (VO) or presence of inhibitor (Vi) were measured. Assuming competitive inhibition, and that unity is negligible compared Km/[S], [I]/e, and [I]/e (where [S], [I], and e respectively represent the total concentrations, of substrate, inhibitor and enzyme), the equilibrium constant (Ki) for dissociation of the inhibitor from the enzyme can be obtained from the dependence of VO/Vi on [I] shown in the following equation. VO/Vi=1+[I]/Ki
row,SMILES,Ki [nM]
1,"CC(C)(C)[C@@H](O)C(=O)N1CCSC[C@H]1C(=O)NCc1cc(Cl)ccc1CN [Example 5, (3R)—N-[2-(aminomethyl)-5-chlorobenzyl]-4-[(2R)-2-hydroxy-3,3-dimethylbutanoyl]thiomorpholine-3-carboxamide trifluoroacetate salt]",1.1
2,"CN1CCN(C(=O)[C@H](O)C(C)(C)C)[C@H](C(=O)NCc2cc(Cl)ccc2CN)C1 [Example 3, (2S)—N-[2-(aminomethyl)-5-chlorobenzyl]-1-[(2R)-2-hydroxy-3,3-dimethylbutanoyl]-4-methylpiperazine-2-carboxamide trifluoroacetate salt]",34
3,"CC(C)(C)[C@@H](O)C(=O)N1CCOC[C@H]1C(=O)NCc1cc(Cl)ccc1CN [Example 4, (3S)—N-[2-(aminomethyl)-5-chlorobenzyl]-4-[(2R)-2-hydroxy-3,3-dimethylbutanoyl]morpholine-3-carboxamide trifluoroacetate salt]",32
4,"CC(C)(C)[C@@H](O)C(=O)N1CC[S+]([O-])C[C@H]1C(=O)NCc1cc(Cl)ccc1CN (stereo partly drawn) [Example 6, (3R)—N-[2-(aminomethyl)-5-chlorobenzyl]-4-[(2R)-2-hydroxy-3,3-dimethylbutanoyl]thiomorpholine-3-carboxamide 1-oxide trifluoroacetate (salt)]",78
5,"CC(C)(C)[C@@H](O)C(=O)N1CCNC[C@H]1C(=O)NCc1cc(Cl)ccc1CN [Example 2, (2S)—N-[2-(aminomethyl)-5-chlorobenzyl]-1-[(2R)-2-hydroxy-3,3-dimethylbutanoyl]piperazine-2-carboxamide bis trifluoroacetate salt]",63
6,"CC(C)(C)[C@@H](O)C(=O)N1CCCC[C@H]1C(=O)NCc1cc(Cl)ccc1CN [Example 1, (2S)—N-[2-(aminomethyl)-5-chlorobenzyl]-1-[(2R)-2-hydroxy-3,3-dimethylbutanoyl]piperidine-2-carboxamide trifluoroacetate salt]",7.3
7,"CC(C)(C)[C@@H](O)C(=O)N1CCS(=O)(=O)C[C@H]1C(=O)NCc1cc(Cl)ccc1CN [Example 7, (3R)—N-[2-(aminomethyl)-5-chlorobenzyl]-4-[(2R)-2-hydroxy-3,3-dimethylbutanoyl]thiomorpholine-3-carboxamide 1,1-dioxide trifluoroacetate salt]",52
